Source: US20260327240A1, “1,4-CINEOLE DERIVATIVE AND INTERMEDIATE THEREOF, HERBICIDE CONTAINING SAID DERIVATIVE AS ACTIVE INGREDIENT, METHOD FOR USING HERBICIDE, AND METHOD FOR PREPARING AGROCHEMICAL COMPOSITION” (HOKKO CHEMICAL INDUSTRY CO., LTD., priority 2023, published 2026)

Assays:
Assay type in all cases: in vivo
[1] = test system: Echinochloa crus-galli var. formosensis; assay: Test Example 1: herbicidal effect test by soil application in paddy rice; details: 120 g per 10 ares, 14 days after application
Method: (§1) Herbicidal Effect Test by Soil Application in Paddy Rice
(§2) Wagner pots with an area of […] were filled with paddy soil, followed by addition of water and incorporation of chemical fertilizer (N:P:K=16:16:16), after which puddling was performed. After that, seeds of Echinochloa crus-galli var. formosensis, broad-leaved weeds (Lindernia pyxidaria and Monochoria vaginalis), and Scirpus juncoides were sown at a depth of 0 cm to 1 cm, 30 seeds each. Immediately after sowing, the pots were flooded and a water depth of approximately 3 cm was maintained. Subsequent management was conducted in a glass greenhouse. Immediately thereafter, an emulsifiable concentrate prepared according to Formulation Example 5 using the compound shown below was diluted with water, and a specified amount of the diluted solution was applied by dropper. The amount of the active ingredient to be applied was equivalent to 120 g per 10 ares.
(§3) The present test was conducted in duplicate for each chemical concentration group, and the weed inhibition rate (%) was determined 14 days after chemical application using the following formula (Math. 1).

Monochoria vaginalis [2] = assay: as above; details: 120 g per 10 ares, 14 days after application
Method: as §1, §2, §3

Scirpus juncoides [3] = assay: as above; details: 120 g per 10 ares, 14 days after application
Method: as §1, §2, §3

Digitaria ciliaris [4] = assay: Test Example 7: herbicidal effect test by soil application in upland field; details: 1 day after sowing, 7.5 g per 10 ares, 14 days after application
Method: (§4) Herbicidal Effect Test by Soil Application in Upland Field
(§5) Pots with an area of 36 cm^2 were filled with upland soil (alluvial loam), twenty seeds each of weeds of Digitaria ciliaris, Echinochloa crus-galli, Chenopodium album, and Amaranthus viridis were uniformly mixed with the top 1 cm layer of soil and the surface was lightly pressed down. One day after sowing, an emulsifiable concentrate prepared according to Formulation Example 5 using the compound shown below was diluted with water, and the diluted solution was sprayed onto the soil surface at a rate of 100 liters per 10 ares. The amount of the active ingredient to be applied was equivalent to 7.5 g per 10 ares. Fourteen days after chemical application, the herbicidal effect was evaluated according to the same criteria as in Test Example 1.

Echinochloa crus-galli [5] = assay: as above; details: 1 day after sowing, 7.5 g per 10 ares, 14 days after application
Method: as §4, §5

Digitaria ciliaris [6] = assay: Test Example 4: herbicidal effect test by stem and leaf treatment in upland field; details: 7 days after sowing, 120 g per 10 ares, 14 days after application
Method: (§6) Herbicidal Effect Test by Stem and Leaf Treatment in Upland Field
as §5, with “Seven days” for “One day”, “120” for “7.5”

Echinochloa crus-galli [7] = assay: as above; details: 7 days after sowing, 120 g per 10 ares, 14 days after application
Method: as §6
as §5, with “Seven days” for “One day”, “120” for “7.5”

Digitaria ciliaris [8] = assay: Test Example 8: herbicidal effect test by stem and leaf treatment in upland field; details: 7 days after sowing, 7.5 g per 10 ares, 14 days after application; for inhibition at 75 g/ha: Digitaria ciliaris, read-out: weed inhibition rate
Method: as §6
as §5, with “Seven days” for “One day”

Echinochloa crus-galli [9] = assay: as above; details: 7 days after sowing, 7.5 g per 10 ares, 14 days after application
Method: as §6
as §5, with “Seven days” for “One day”

[10] = test system: Echinochloa crus-galli var. formosensis; assay: Test Example 2: herbicidal effect test by application during growth period of paddy rice; details: 7 days after sowing, 120 g per 10 ares, 14 days after application
Method: (§7) Herbicidal Effect Test by Application During Growth Period of Paddy Rice
as §2, with “(Lindemia pyxidaria,” for “(Lindernia pyxidaria”, “Seven days after sowing,” for “Immediately thereafter,”, “ares. The test was conducted in duplicate for each chemical concentration group, and the herbicidal effect was evaluated 14 days after chemical application using the same criteria as in Test Example 1.” for “ares.”

Monochoria vaginalis [11] = assay: as above; details: 7 days after sowing, 120 g per 10 ares, 14 days after application
Method: as §7
as §2, with “(Lindemia pyxidaria,” for “(Lindernia pyxidaria”, “Seven days after sowing,” for “Immediately thereafter,”, “ares. The test was conducted in duplicate for each chemical concentration group, and the herbicidal effect was evaluated 14 days after chemical application using the same criteria as in Test Example 1.” for “ares.”

Scirpus juncoides [12] = assay: as above; details: 7 days after sowing, 120 g per 10 ares, 14 days after application
Method: as §7
as §2, with “(Lindemia pyxidaria,” for “(Lindernia pyxidaria”, “Seven days after sowing,” for “Immediately thereafter,”, “ares. The test was conducted in duplicate for each chemical concentration group, and the herbicidal effect was evaluated 14 days after chemical application using the same criteria as in Test Example 1.” for “ares.”

[13] = test system: Echinochloa crus-galli var. formosensis; assay: Test Example 6: herbicidal effect test by application during growth period of paddy rice; details: 7 days after sowing, 7.5 g per 10 ares, 14 days after application
Method: as §7
as §2, with “(Lindemia pyxidaria,” for “(Lindernia pyxidaria”, “Seven days after sowing,” for “Immediately thereafter,”, “7.5” for “120”, “ares. The test was conducted in duplicate for each chemical concentration group, and the herbicidal effect was evaluated 14 days after chemical application using the same criteria as in Test Example 1.” for “ares.”

Digitaria ciliaris [14] = assay: Test Example 3: herbicidal effect test by soil application in upland field; details: 1 day after sowing, 120 g per 10 ares, 14 days after application
Method: as §4
as §5, with “120” for “7.5”

Echinochloa crus-galli [15] = assay: as above; details: 1 day after sowing, 120 g per 10 ares, 14 days after application
Method: as §4
as §5, with “120” for “7.5”

[16] = test system: Echinochloa crus-galli var. formosensis; assay: Test Example 5: herbicidal effect test by soil application in paddy rice; details: 7.5 g per 10 ares, 14 days after application
Method: as §1
as §2, with “(Lindemia pyxidaria,” for “(Lindernia pyxidaria”, “7.5” for “120”
(§8) The present test was conducted in duplicate for each chemical concentration group, and the herbicidal effect was evaluated 14 days after chemical application using the same criteria as in Test Example 1.

Monochoria vaginalis [17] = assay: Test Example 6: herbicidal effect test by application during growth period of paddy rice; details: 7 days after sowing, 7.5 g per 10 ares, 14 days after application
Method: as §7
as §2, with “(Lindemia pyxidaria,” for “(Lindernia pyxidaria”, “Seven days after sowing,” for “Immediately thereafter,”, “7.5” for “120”, “ares. The test was conducted in duplicate for each chemical concentration group, and the herbicidal effect was evaluated 14 days after chemical application using the same criteria as in Test Example 1.” for “ares.”

Monochoria vaginalis [18] = assay: Test Example 5: herbicidal effect test by soil application in paddy rice; details: 7.5 g per 10 ares, 14 days after application
Method: as §1
as §2, with “(Lindemia pyxidaria,” for “(Lindernia pyxidaria”, “7.5” for “120”
as §8

Scirpus juncoides [19] = assay: as above; details: 7.5 g per 10 ares, 14 days after application
Method: as §1
as §2, with “(Lindemia pyxidaria,” for “(Lindernia pyxidaria”, “7.5” for “120”
as §8

[20] = Digitaria ciliaris, read-out: weed inhibition rate
[21] = Echinochloa crus-galli, read-out: weed inhibition rate

CC(C)[C@]12C[C@@H](OCc3ccccc3F)[C@](C)(C[C@@H]1Cl)O2 [1-12]
≥ 80%: weed inhibition rate [1] | weed inhibition rate (Monochoria vaginalis [2]) | weed inhibition rate (Scirpus juncoides [3]) | weed inhibition rate (Digitaria ciliaris [4]) | weed inhibition rate (Echinochloa crus-galli [5]) | weed inhibition rate (Digitaria ciliaris [6]) | weed inhibition rate (Echinochloa crus-galli [7]) | weed inhibition rate (Digitaria ciliaris [8]) | weed inhibition rate (Echinochloa crus-galli [9]) | weed inhibition rate [10] | weed inhibition rate (Monochoria vaginalis [11]) | weed inhibition rate (Scirpus juncoides [12]) | weed inhibition rate [13] | weed inhibition rate (Digitaria ciliaris [14]) | weed inhibition rate (Echinochloa crus-galli [15]) | weed inhibition rate [16]

CC(C)C1C[C@]2(C)O[C@@]1(C(C)C)C[C@H]2OCc1ccccc1F (stereo partly drawn) [1-133, (1S,2R,4R)-2-[(2-fluorobenzyl)oxy]-4,5-isopropyl-1-methyl-7-oxabicyclo[2.2.1]heptane]
≥ 80%: weed inhibition rate [1] | weed inhibition rate (Monochoria vaginalis [2]) | weed inhibition rate (Scirpus juncoides [3]) | weed inhibition rate (Digitaria ciliaris [4]) | weed inhibition rate (Echinochloa crus-galli [5]) | weed inhibition rate (Digitaria ciliaris [6]) | weed inhibition rate (Echinochloa crus-galli [7]) | weed inhibition rate (Echinochloa crus-galli [9]) | weed inhibition rate [10] | weed inhibition rate (Monochoria vaginalis [11]) | weed inhibition rate (Scirpus juncoides [12]) | weed inhibition rate [13] | weed inhibition rate (Monochoria vaginalis [17]) | weed inhibition rate (Digitaria ciliaris [14]) | weed inhibition rate (Echinochloa crus-galli [15]) | weed inhibition rate [16] | weed inhibition rate (Monochoria vaginalis [18]) | weed inhibition rate (Scirpus juncoides [19])

CC(C)[C@]12C[C@@H](OCc3ccccc3C(F)(F)F)[C@](C)(C[C@@H]1Br)O2 [1-700, (1S,2R,4R,5S)-5-bromo-1-methyl-4-isopropyl-2-[[2-(trifluoromethyl)phenyl]methoxy]-7-oxabicyclo[2.2.1]heptane]
≥ 80%: inhibition at 75 g/ha (Digitaria ciliaris [8])

CC(C)[C@]12C[C@@H](OCc3ccccn3)[C@](C)(C[C@@H]1I)O2 [1-785, 2-[[(1S,2R,4R,5S)-5-iodo-4-isopropyl-1-methyl-7-oxabicyclo[2.2.1]heptan-2-yl]oxymethyl]pyridine]
≥ 80%: inhibition at 75 g/ha (Digitaria ciliaris [4]; [20]) | inhibition at 75 g/ha (Echinochloa crus-galli [5]; [21]) | inhibition at 1200 g/ha (Digitaria ciliaris [6]; [20]) | inhibition at 1200 g/ha (Echinochloa crus-galli [7]; [21]) | inhibition at 75 g/ha (Digitaria ciliaris [8]) | inhibition at 75 g/ha (Echinochloa crus-galli [9]; [21]) | inhibition at 1200 g/ha [10, 21] | inhibition at 1200 g/ha (Scirpus juncoides [12]; Schoenoplectiella juncoides, read-out: weed inhibition rate) | inhibition at 75 g/ha [13, 21] | inhibition at 75 g/ha ([16]; Echinochloa crus-galli, 336 h, read-out: weed inhibition rate)

CC(=O)O[C@@H]1C[C@]2(C)O[C@@]1(C(C)C)C[C@H]2OCc1ccccc1F [1-932, [(1R,2R,4S,5R)-5-[(2-fluorophenyl)methoxy]-4-methyl-1-isopropyl-7-oxabicyclo[2.2.1]heptan-2-yl]acetate]
≥ 80%: weed inhibition rate [1] | weed inhibition rate [10] | weed inhibition rate [13] | weed inhibition rate [16]

CC(C)[C@]12C[C@@H](OCc3ccccc3F)[C@](C)(C=C1OS(=O)(=O)C(F)(F)F)O2 [3-680]
≥ 80%: weed inhibition rate [1] | weed inhibition rate (Scirpus juncoides [3]) | weed inhibition rate (Digitaria ciliaris [4]) | weed inhibition rate (Echinochloa crus-galli [5]) | weed inhibition rate (Digitaria ciliaris [6]) | weed inhibition rate (Echinochloa crus-galli [7]) | weed inhibition rate (Digitaria ciliaris [8]) | weed inhibition rate (Echinochloa crus-galli [9]) | weed inhibition rate [10] | weed inhibition rate (Scirpus juncoides [12]) | weed inhibition rate [13] | weed inhibition rate (Digitaria ciliaris [14]) | weed inhibition rate (Echinochloa crus-galli [15]) | weed inhibition rate [16]
